From PubChem BioAssay (NCI) come the findings set out here.

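48-hour exposure; five concentrations; linearly interpolated endpoints. TGI marks complete inhibition of growth.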

Some test systems named below: 786-0 renal; A498 renal; A549 NSCLC; CCRF-CEM leukemia; HCC-2998 colon; HCT-15 colon; IGROV1 ovarian; LOX IMVI melanoma; M14 melanoma; MCF7 breast; OVCAR-4 ovarian; OVCAR-5 ovarian; SF-539 CNS; T-47D breast; UACC-62 melanoma; HL-60(TB) leukemia; UO-31 renal.
Holding throughout (experiment): NCI tumour cell line growth inhibition, 48 h

`COc1ccc(P2(=S)Oc3ccccc3-c3ccccc3O2)cc1`: the TGI with 786-0 renal was over 100 µM; in the assay with A498 renal, 4.01 µM; in the assay on A549 NSCLC it was over 54.9 µM; in the assay on CCRF-CEM leukemia, over 100 µM; in the assay on HCC-2998 colon it was 9.56 µM; in the assay on HCT-15 colon it was over 100 µM. Besides, the TGI with IGROV1 ovarian is over 100 µM; in the assay with LOX IMVI melanoma, over 100 µM; in the assay with M14 melanoma, over 100 µM; in the assay with MCF7 breast, over 40.4 µM; in the assay with OVCAR-4 ovarian, over 100 µM; in the assay on OVCAR-5 ovarian, over 100 µM. The values for the TGI in the assay on SF-539 CNS, with T-47D breast and in the assay on UACC-62 melanoma were 0.537 µM, over 100 µM and over 100 µM, respectively.
On to `NC(=O)c1cc2ccc(O)cc2o/c1=N/NC(=O)c1ccccc1`, for which the TGI in the assay with 786-0 renal, in the assay on A498 renal, in the assay on A549 NSCLC, in the assay on CCRF-CEM leukemia, in the assay with HCC-2998 colon and in the assay with HCT-15 colon was over 100 µM in each case. Moreover, the TGI in the assay with HL-60(TB) leukemia, in the assay with IGROV1 ovarian, in the assay on LOX IMVI melanoma, with M14 melanoma, with MCF7 breast and in the assay on OVCAR-4 ovarian was over 100 µM each time. For the same compound, the TGI with OVCAR-5 ovarian is over 100 µM; with T-47D breast, 91.4 µM; with UACC-62 melanoma, over 100 µM; in the assay on UO-31 renal it was over 100 µM.
For the compound `Cc1ccc(N2C(=O)C=C(C3=C(O)C(=O)N(c4ccc(C)cc4)C3=O)C2=O)cc1`, the TGI in the assay with 786-0 renal, with A498 renal, in the assay with A549 NSCLC, in the assay with CCRF-CEM leukemia, in the assay on HCC-2998 colon and with HCT-15 colon was over 100 µM each time. The TGI with HL-60(TB) leukemia, in the assay with IGROV1 ovarian, in the assay with LOX IMVI melanoma, with M14 melanoma, in the assay on MCF7 breast and in the assay with OVCAR-4 ovarian was over 100 µM throughout. Also, the TGI with OVCAR-5 ovarian, with T-47D breast, in the assay on UACC-62 melanoma and in the assay on UO-31 renal was over 100 µM throughout.
As to `CC1=NN(c2cccc(Cl)c2)C2(SCC(=O)N2c2nc3ccccc3s2)/C1=C\c1ccc(N(C)C)cc1` (stereo unspecified), the TGI with 786-0 renal was over 100 µM; in the assay with A498 renal it was 87.9 µM; with CCRF-CEM leukemia, over 100 µM; in the assay on HCC-2998 colon, over 100 µM; in the assay on HCT-15 colon, over 100 µM; with HL-60(TB) leukemia, over 100 µM. In addition, the TGI with IGROV1 ovarian, with LOX IMVI melanoma, in the assay on M14 melanoma, with MCF7 breast, in the assay on OVCAR-4 ovarian and in the assay with OVCAR-5 ovarian was over 100 µM each time. In addition, the TGI with SF-539 CNS, in the assay on T-47D breast and with UO-31 renal was over 100 µM each time.
For `Nc1nc(N)c2cc(-c3ccccc3)cnc2n1`, the TGI in the assay on 786-0 renal is 21.5 µM; in the assay with A498 renal it was 28.5 µM; with A549 NSCLC, 28 µM; in the assay on CCRF-CEM leukemia it was 98.3 µM; with HCC-2998 colon it was over 100 µM; with HCT-15 colon it was over 100 µM. Also, the TGI amounted to 28.4 µM with HL-60(TB) leukemia; 26.8 µM in the assay on IGROV1 ovarian; 37.6 µM in the assay with LOX IMVI melanoma; 57.7 µM in the assay on M14 melanoma; 44.1 µM in the assay on MCF7 breast; 35.2 µM with OVCAR-4 ovarian. Moreover, the TGI is 27.7 µM in the assay with OVCAR-5 ovarian, 31.1 µM with SF-539 CNS, over 100 µM with T-47D breast and 25.7 µM in the assay on UO-31 renal.
For `Clc1ccc(OCc2nnc(CCCCCCCCc3nnc(COc4ccc(Cl)cc4Cl)n3Nc3ccccc3)n2Nc2ccccc2)c(Cl)c1`, the TGI with 786-0 renal is 31.2 µM; in the assay on A498 renal it was 55.6 µM; with A549 NSCLC, 64.4 µM; in the assay with HCC-2998 colon, 20.8 µM; with HCT-15 colon, 35 µM; with IGROV1 ovarian, 47.7 µM. Also, the TGI in the assay with LOX IMVI melanoma stood at 34.3 µM; in the assay with M14 melanoma it was 29.2 µM; in the assay on MCF7 breast, 45.6 µM; with OVCAR-4 ovarian, 59.5 µM; in the assay on OVCAR-5 ovarian, 43.9 µM; in the assay on SF-539 CNS, 33.5 µM. The values for the TGI in the assay with T-47D breast, in the assay with UACC-62 melanoma and with UO-31 renal were over 100 µM, 15.7 µM and 40 µM, respectively.
With `C1CCCCC2(CCCCCCCCC3(CCC1)OCCO3)OCCO2`, the TGI with 786-0 renal, in the assay on A498 renal, in the assay with A549 NSCLC, in the assay with HCC-2998 colon, in the assay on HCT-15 colon and in the assay on HL-60(TB) leukemia was over 100 µM throughout. Further, the TGI in the assay with IGROV1 ovarian, in the assay with LOX IMVI melanoma, in the assay with M14 melanoma, in the assay on MCF7 breast, in the assay on OVCAR-4 ovarian and with OVCAR-5 ovarian was over 100 µM each time. The TGI in the assay with SF-539 CNS is over 100 µM; in the assay with T-47D breast, over 100 µM; in the assay with UACC-62 melanoma, over 100 µM; in the assay with UO-31 renal, 3.64 µM.
In the case of `COc1cccc2c1CCc1cc3c(N)nc(N)nc3nc1-2`, the TGI in the assay on 786-0 renal was 6.13 µM; in the assay with A498 renal it was 32.9 µM; in the assay with A549 NSCLC, 7.69 µM; in the assay on CCRF-CEM leukemia, 7.02 µM; in the assay with HCC-2998 colon, 5.78 µM; in the assay on HCT-15 colon it was 23.4 µM. In addition, the TGI is 17.2 µM in the assay on IGROV1 ovarian; 3.34 µM in the assay with LOX IMVI melanoma; 20.9 µM in the assay on M14 melanoma; 47.9 µM in the assay on MCF7 breast; 32.5 µM in the assay with OVCAR-4 ovarian; 21.3 µM with OVCAR-5 ovarian. Moreover, the TGI is 9.16 µM in the assay on SF-539 CNS, over 67.7 µM in the assay on T-47D breast, 16.7 µM with UACC-62 melanoma and 9.7 µM in the assay with UO-31 renal.
`CN(C)CCCNc1ccc2c(=O)n(CCN(C)C)c(=O)n3c4ccccc4c(=O)c1c23`: the TGI in the assay on 786-0 renal was 0.752 µM; with A498 renal, 5.35 µM; with A549 NSCLC, 10.5 µM; in the assay on CCRF-CEM leukemia, over 100 µM; in the assay with HCC-2998 colon, 0.267 µM; in the assay on HCT-15 colon it was 1.13 µM. Besides, the TGI in the assay with IGROV1 ovarian was determined as 4.33 µM; with LOX IMVI melanoma, 0.343 µM; with M14 melanoma it was 1.59 µM; in the assay on MCF7 breast, 0.565 µM; in the assay on OVCAR-4 ovarian, 4.35 µM; in the assay with OVCAR-5 ovarian it was 1.89 µM. Further, the TGI was found to be 2.02 µM in the assay on SF-539 CNS, 13.7 µM in the assay with T-47D breast, 1.56 µM with UACC-62 melanoma and 2.08 µM in the assay on UO-31 renal.
